Assays:
[1] = Partition coefficient (logP); details: octanol/water
Salmonella typhimurium = experiment: Mutagenic activity in an Ames test on Salmonella Typhimurium TA98; Activity is log of revertants/nmol; assay type: functional, Salmonella enterica subsp. enterica serovar Typhimurium; parameters: scale not given here

Row | SMILES | logP [1] | Activity (Salmonella typhimurium)
1 | O=[N+]([O-])c1ccc2ccc3c4c(cc5ccc1c2c53)CCCC4 | 6.57 | 0.3
2 | O=[N+]([O-])c1ccc2c(c1)Oc1cc(Cl)c(Cl)cc1O2 | 6.24 | 1.73
3 | CN1Cc2cccc([N+](=O)[O-])c2N1 | 1.77 | 0.23
4 | O=[N+]([O-])C1=CC=CC2Nc3cccc([N+](=O)[O-])c3NC12 (stereo not given) | 2.29 | 1.26
5 | O=[N+]([O-])c1ccc2[nH]ccc2c1 | 2.13 | 0.57
6 | O=[N+]([O-])c1ccc2c(c1)Cc1cc(O)ccc1-2 | 3.43 | 1.68
7 | O=[N+]([O-])c1ccc2ccc3c4c(cc5ccc1c2c53)C(O)C(O)C=C4 (stereo not given) | 3.01 | 3.08
8 | O=[N+]([O-])c1cc2c3c(ccc([N+](=O)[O-])c3c1)-c1ccccc1-2 | 4.44 | 3.78
9 | O=[N+]([O-])c1ccc(Cl)c(Cl)c1Cl | 3.61 | -2.94
10 | O=[N+]([O-])C1=CC2Nc3ccc([N+](=O)[O-])cc3NC2C=C1 (stereo not given) | 2.29 | 4.34
11 | O=[N+]([O-])c1cc([N+](=O)[O-])c2c3c(c4cccc5ccc1c2c54)CCCC3 | 6.01 | 2.41
12 | O=[N+]([O-])c1ccc2c(c1)NCC2 | 1.92 | -0.48
13 | O=[N+]([O-])c1ccc2ncccc2c1 | 1.84 | -1.08
14 | O=[N+]([O-])c1cc2c3c(c1)CCc1cccc(c1-3)CC2 | 5.28 | 1.58
15 | O=[N+]([O-])c1ccc2c(c1)Cc1cccc([N+](=O)[O-])c1-2 | 3.71 | 3.2
16 | O=[N+]([O-])c1cc(O)c2ccc3cccc4ccc1c2c34 | 4.66 | 3.87
17 | Cc1ccccc1-c1ccc([N+](=O)[O-])c(C)c1 | 4.49 | -0.84
18 | O=[N+]([O-])c1c2ccccc2c2ccc3cccc4ccc1c2c43 | 5.87 | 1.64
19 | O=[N+]([O-])C1=CC2Nc3cc([N+](=O)[O-])ccc3NC2C=C1 (stereo not given) | 2.29 | 2.75
20 | O=[N+]([O-])c1cc2c3c(cc([N+](=O)[O-])c([N+](=O)[O-])c3c1)-c1ccccc1-2 | 4.18 | 3.44
21 | O=C(/C=C/c1ccc([N+](=O)[O-])o1)N/N=C/c1ccc([N+](=O)[O-])o1 | 2.79 | 2.45
22 | O=[N+]([O-])c1ccc2c3c(c4cccc5ccc1c2c54)CCCC3 | 6.26 | 0.78
23 | O=[N+]([O-])c1cc2ccc3ccc4ccc5ccc6ccc1c1c6c5c4c3c21 | 6.79 | 0.45

Row | SMILES | logP [1] | Activity (Salmonella typhimurium)
24 | Nc1ccccc1-c1ccc([N+](=O)[O-])cc1 | 2.68 | -1.7
25 | Cn1c([N+](=O)[O-])nc2ccccc21 | 1.58 | 2.54
26 | O=[N+]([O-])c1ccc2c3c(cccc13)-c1ccccc1-2 | 4.69 | 3.67
27 | O=[N+]([O-])c1ccc(-c2ccccc2)cc1 | 3.77 | -0.3
28 | CC(=O)Nc1ccc2c(c1)Cc1cc([N+](=O)[O-])ccc1-2 | 3.08 | 2.85
29 | O=[N+]([O-])c1ccc2cn[nH]c2c1 | 2.06 | 0.66
30 | O=[N+]([O-])c1ccc2ccc3cccc4ccc1c2c34 [1-NITROPYRENE] | 4.69 | 2.78
31 | O=[N+]([O-])c1cccc2ccccc12 | 3.19 | -0.61
32 | O=[N+]([O-])c1ccc(-c2cccc([N+](=O)[O-])c2)cc1 | 3.52 | 0.23
33 | O=[N+]([O-])c1c(Cl)cc2c(c1Cl)Oc1cc(Cl)c(Cl)cc1O2 | 7.13 | -1.4
34 | O=[N+]([O-])C1=Cc2c3ccc4ccccc4c3cc3cccc1c23 | 5.07 | 0.86
35 | C=Cc1ccc([N+](=O)[O-])cc1 | 2.61 | -1.3
36 | O=[N+]([O-])c1ccc2ccc3c([N+](=O)[O-])cc([N+](=O)[O-])c4ccc1c2c34 | 4.18 | 4.99
37 | Cc1ccc2c(c1)Cc1cc([N+](=O)[O-])ccc1-2 | 4.62 | 2.36
38 | Cc1cc(-c2ccccc2)ccc1[N+](=O)[O-] | 3.99 | -0.1
39 | O=C(Nc1ccc2c(c1)Cc1cc([N+](=O)[O-])ccc1-2)C(F)(F)F | 4.23 | 2.81
40 | O=C1NCCN1c1ncc([N+](=O)[O-])s1 [NIRIDAZOLE] | 0.95 | 2.59
41 | CC(=O)Oc1cc([N+](=O)[O-])c2ccc3cccc4ccc1c2c43 | 4.42 | 4.22
42 | Nc1cccc(-c2cccc([N+](=O)[O-])c2)c1 | 2.68 | -1.7
43 | O=[N+]([O-])c1cc(F)ccc1F | 1.89 | -0.79
44 | COc1ccccc1[N+](=O)[O-] [2-NITROANISOLE] | 1.73 | -2.7
45 | O=[N+]([O-])c1cc2c3c(ccc4cccc(c43)CC2)c1 | 4.99 | 3.27
46 | O=[N+]([O-])c1c2ccccc2cc2c1ccc1ccccc12 | 5.41 | -0.52

Row | SMILES | logP [1] | Activity (Salmonella typhimurium)
47 | O=[N+]([O-])c1ccc2cc3ccccc3cc2c1 | 4.23 | 2.95
48 | O=[N+]([O-])c1cc2c3c(cccc3c1[N+](=O)[O-])-c1ccccc1-2 | 4.44 | 2.62
49 | O=[N+]([O-])c1cc2ccc3cccc4ccc(c1)c2c34 | 4.69 | 3.35
50 | O=[N+]([O-])c1ccc(F)cc1 | 1.8 | -0.23
51 | O=[N+]([O-])c1ccc(-c2ccc([N+](=O)[O-])cc2)cc1 | 3.52 | 1.17
52 | Nc1ccc(-c2cccc([N+](=O)[O-])c2)cc1 | 2.68 | -1.52
53 | Nc1cccc(-c2ccccc2[N+](=O)[O-])c1 | 2.68 | -2
54 | O=[N+]([O-])c1ccc2c(c1)Cc1cc([N+](=O)[O-])ccc1-2 | 3.35 | 3.22
55 | CN1Cc2cc([N+](=O)[O-])ccc2N1 | 1.77 | -1.1
56 | O=[N+]([O-])C1=Cc2ccc3ccc4cccc5cc1c2c3c45 | 4.35 | 0.77
57 | COc1ccc2c(c1)Cc1cc([N+](=O)[O-])ccc1-2 | 3.95 | 2.79
58 | O=C1c2ccccc2-c2cc([N+](=O)[O-])ccc21 | 3.06 | 2.13
59 | CC(=O)Oc1ccc2c(c1)Cc1cc([N+](=O)[O-])ccc1-2 | 3.46 | 1.86
60 | N#Cc1ccc2c(c1)Cc1cc([N+](=O)[O-])ccc1-2 | 3.4 | 2.51
61 | Nc1ccc([N+](=O)[O-])cc1N | 0.88 | 0.63
62 | O=[N+]([O-])c1cc([N+](=O)[O-])c2ccccc2c1 | 2.83 | -0.05
63 | O=[N+]([O-])c1ccc2c(ccc3c4ccccc4ccc23)c1 | 5.41 | -0.22
64 | O=[N+]([O-])c1ccc(Cl)c([N+](=O)[O-])c1 [DINITROCHLOROBENZENE] | 2.17 | 0.3
65 | O=[N+]([O-])c1ccc2c(c1)Cc1cc(Br)ccc1-2 | 4.83 | 3.06
66 | O=[N+]([O-])c1ccc(F)cc1[N+](=O)[O-] | 1.89 | -1.84
67 | O=[N+]([O-])c1cc2c3c(c([N+](=O)[O-])c([N+](=O)[O-])cc3c1)-c1ccccc1-2 | 4.18 | 3.16
68 | Nc1ccc([N+](=O)[O-])cc1[N+](=O)[O-] | 1.84 | -1.74
69 | O=[N+]([O-])C1Cc2cccc3cccc1c23 (stereo not given) | 2.72 | 1.77

Row | SMILES | logP [1] | Activity (Salmonella typhimurium)
70 | O=[N+]([O-])c1ccc2c(c1)Nc1cccc([N+](=O)[O-])c1N2 | 2.29 | 2.02
71 | Nc1ccc(Cl)cc1[N+](=O)[O-] [4-CHLORO-2-NITROANILINE] | 2.72 | -2
72 | O=[N+]([O-])c1ccc(F)cc1F | 1.89 | -1.66
73 | CN1Cc2ccc([N+](=O)[O-])cc2N1 | 1.77 | -0.41
74 | O=[N+]([O-])c1cc2c3c(cc([N+](=O)[O-])cc3c1)-c1ccccc1-2 | 4.44 | 2.32
75 | O=[N+]([O-])c1ccc2cccc3c2c1CC3 | 3.81 | 1
76 | O=[N+]([O-])c1ccc2c(ccc3ccccc32)c1 | 4.23 | 2.11
77 | O=[N+]([O-])c1cccc2ncccc12 | 1.86 | -0.96
78 | O=[N+]([O-])c1ccc2c(c1)Cc1cc(Cl)ccc1-2 | 4.68 | 3.11
79 | O=[N+]([O-])c1ccc2c3c(cccc13)-c1cc3ccccc3cc1-2 | 5.87 | 2.76
80 | O=[N+]([O-])c1ccc2cccc3c2c1C=C3 | 3.36 | 1.77
81 | Cc1ccc2cccc([N+](=O)[O-])c2n1 | 1.99 | -2.7
82 | O=[N+]([O-])c1ccc2ccc3cccc4c5c(c1c2c34)CCCC5 | 6.26 | 0.7
83 | O=[N+]([O-])C1=Cc2cccc3c2c1cc1cc2ccccc2cc13 | 5.07 | 0.92
84 | O=[N+]([O-])c1ccc2c3c(ccc([N+](=O)[O-])c13)-c1ccccc1-2 | 4.44 | 3.62
85 | Nc1ccccc1-c1cccc([N+](=O)[O-])c1 | 2.68 | -1.52
86 | O=[N+]([O-])c1ccc(F)c(Cl)c1 | 2.74 | -1.21
87 | O=[N+]([O-])c1cccc(Cl)c1Cl | 3.05 | -1.51
88 | O=[N+]([O-])c1ccc2ccc3cc4ccccc4c4ccc1c2c34 | 5.87 | 2.63
89 | O=Cc1ccc([N+](=O)[O-])o1 | 1.01 | 0.64
90 | O=[N+]([O-])c1ccc2c3ccccc3c3ccccc3c2c1 | 5.41 | 4.09
